For assay [1], the system named is Axl phosphorylation in transiently transfected HEK293T cells. Put plainly: Cellular Axl phosphorylation assay. Type of assay: cell-based. The conditions noted are these: Homo sapiens, HEK-293T; HEK293T cells transfected with Axl, 1 hour compound treatment, Phospho-Axl vs Total-Axl. From the text: Cell AXL Inhibition Assay Principle
The assay is based on the measurement of the relative amounts of Total-Axl and Phosphorylated-Axl in whole cell lysates of transiently transfected HEK293T cells. This assay is based on application of the Mesoscale western blot and subsequent electro-chemiluminescence detection. Overexpression of Axl-RTK (Receptor tyrosine kinase) by transfection leads to an increase in Axl-trans-autophosphorylation events. Upon compound treatment, the correlation of the measured values of Phosphorylated-Axl and Total Axl indicate the potential of the tested compound to inhibit Axl-phosphorylation at the given compound concentration.
Cell AXL Inhibition Assay Protocol
HEK293T cells (2.5×10^4/well) were plated in a 96 well plate and cells were transfected with pcDNA_DEST_40 Axl or pcDNA_DEST_40 by Superfact reagent (Qiagen. Co. Ltd.). After overnight, the transfection reagent of each well was removed from cells and replaced by fresh prewarmed medium. On the following day, cells were treated with the respective test compound which was diluted by the same method, as in the Axl binding assay using DMSO, for 1 hour
After incubation with the test compounds, cells in the well of the plate were lysed using Tris lysis buffer. The lysate was transferred to two plates (total-Axl and phosphor-Axl) Mesoscale high bind plates and incubated for two hours at room temperature. Afterwards the lysates were removed from the plates and the plates were blocked using Blocking buffer. Subsequently Total-Axl antibody (H-124, Santa Cruz) was transferred to one Mesoscale high bind plate, and Phospho-Axl antibody (AF2228, R&D) to the other plate. After 1 h incubation, Sulpho-Tag antibody (goat anti-rabbit, Mesoscale) was added and again incubated for 1 hour. For the measurement, 2×MSD read buffer was added to each well and the plates were analyzed with a Mesoscale Sector Imager 2400. IC50 (half the maximal inhibitory concentration) was determined relative to between the vehicle (DMSO) control group and minimum control group as transfection of the control vector (pcDNA_DEST_40).
The results after this assay are shown in table 3 for selected compounds.

Assay [2] deals with T1, TYRO3 (Homo sapiens, UniProt Q06418).
T1 construct: purchased Life Technologies
T1 sequence (Q06418 41-890): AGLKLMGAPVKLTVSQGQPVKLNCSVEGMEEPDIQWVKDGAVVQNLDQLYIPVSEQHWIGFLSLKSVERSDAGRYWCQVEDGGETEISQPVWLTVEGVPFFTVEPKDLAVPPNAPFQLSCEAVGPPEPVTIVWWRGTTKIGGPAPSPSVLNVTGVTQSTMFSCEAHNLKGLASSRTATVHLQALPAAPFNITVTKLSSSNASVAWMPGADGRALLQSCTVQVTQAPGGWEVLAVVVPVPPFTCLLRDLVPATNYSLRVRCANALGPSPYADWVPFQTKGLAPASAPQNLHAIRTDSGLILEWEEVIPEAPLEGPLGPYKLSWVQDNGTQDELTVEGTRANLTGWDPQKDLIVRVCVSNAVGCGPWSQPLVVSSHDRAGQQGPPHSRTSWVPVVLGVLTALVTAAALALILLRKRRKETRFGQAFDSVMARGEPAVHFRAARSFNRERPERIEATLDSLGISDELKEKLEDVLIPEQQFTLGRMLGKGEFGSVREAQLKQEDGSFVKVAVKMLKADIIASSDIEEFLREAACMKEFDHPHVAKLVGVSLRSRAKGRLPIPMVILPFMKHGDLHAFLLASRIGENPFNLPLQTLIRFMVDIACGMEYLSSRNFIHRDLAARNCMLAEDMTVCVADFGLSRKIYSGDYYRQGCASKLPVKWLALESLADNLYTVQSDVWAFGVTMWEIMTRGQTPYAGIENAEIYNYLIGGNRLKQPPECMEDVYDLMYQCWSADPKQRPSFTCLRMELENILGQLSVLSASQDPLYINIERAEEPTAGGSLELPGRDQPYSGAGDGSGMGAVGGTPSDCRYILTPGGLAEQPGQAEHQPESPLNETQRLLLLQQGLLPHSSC
In words: LanthaScreen Eu kinase binding assay, TYRO3. The conditions noted are these: Tracer 236. (In general: In TR-FRET formats the signal depends on donor and acceptor labels being close together.)

Assay [3] has as its target T2, Met (Homo sapiens, UniProt P08581).
T2 construct: purchased Life Technologies
In words: LanthaScreen Eu kinase binding assay, Met. Conditions: Tracer 236, read-out: cMet kinase binding activity (Kd).

As a reminder, the IC50 is the concentration that gives 50% inhibition. By Kd is commonly meant the concentration at which binding is half-saturated.

T2 sequence (P08581 25-1390): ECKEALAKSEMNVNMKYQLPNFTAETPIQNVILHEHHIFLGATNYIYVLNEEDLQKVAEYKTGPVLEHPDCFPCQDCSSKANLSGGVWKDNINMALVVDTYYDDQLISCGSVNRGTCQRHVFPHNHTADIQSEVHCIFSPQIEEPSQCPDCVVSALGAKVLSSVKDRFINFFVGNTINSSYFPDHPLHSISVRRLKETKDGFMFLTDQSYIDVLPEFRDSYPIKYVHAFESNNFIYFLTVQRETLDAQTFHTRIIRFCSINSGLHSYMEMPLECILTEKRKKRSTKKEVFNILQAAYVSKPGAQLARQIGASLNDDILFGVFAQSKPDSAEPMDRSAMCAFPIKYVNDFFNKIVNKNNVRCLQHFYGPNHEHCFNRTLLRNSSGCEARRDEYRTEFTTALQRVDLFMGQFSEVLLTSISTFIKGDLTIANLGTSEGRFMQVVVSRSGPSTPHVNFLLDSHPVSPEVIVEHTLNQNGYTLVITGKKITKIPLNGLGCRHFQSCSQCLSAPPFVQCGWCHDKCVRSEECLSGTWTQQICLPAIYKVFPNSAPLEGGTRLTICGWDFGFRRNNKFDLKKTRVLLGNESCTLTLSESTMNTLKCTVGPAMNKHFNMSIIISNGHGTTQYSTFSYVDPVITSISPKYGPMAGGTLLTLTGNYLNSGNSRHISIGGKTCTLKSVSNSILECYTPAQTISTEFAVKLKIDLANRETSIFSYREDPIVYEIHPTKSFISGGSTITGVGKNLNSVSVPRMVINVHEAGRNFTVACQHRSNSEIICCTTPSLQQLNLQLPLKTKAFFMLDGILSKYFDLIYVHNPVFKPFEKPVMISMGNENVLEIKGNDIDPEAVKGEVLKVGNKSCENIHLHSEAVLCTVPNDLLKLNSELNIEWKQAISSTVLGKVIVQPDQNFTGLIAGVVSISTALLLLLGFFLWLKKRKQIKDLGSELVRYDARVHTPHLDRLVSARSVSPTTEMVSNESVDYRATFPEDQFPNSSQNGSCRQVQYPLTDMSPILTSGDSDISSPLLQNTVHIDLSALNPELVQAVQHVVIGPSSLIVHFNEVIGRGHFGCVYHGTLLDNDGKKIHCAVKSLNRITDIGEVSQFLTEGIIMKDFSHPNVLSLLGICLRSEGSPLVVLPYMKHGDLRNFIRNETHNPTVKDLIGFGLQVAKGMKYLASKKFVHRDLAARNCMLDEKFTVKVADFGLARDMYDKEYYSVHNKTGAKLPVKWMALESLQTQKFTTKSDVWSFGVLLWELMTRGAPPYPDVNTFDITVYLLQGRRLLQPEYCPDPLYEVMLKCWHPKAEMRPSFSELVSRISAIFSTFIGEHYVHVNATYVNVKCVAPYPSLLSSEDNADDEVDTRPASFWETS

Compound `CCOc1cn(-c2ccc(N)nc2)nc1C(=O)Nc1ccc(Oc2ccnc3cc(OC)c(OC)cc23)cn1` [Compound 6] returned an IC50 in assay [1] of less than 100 nM. Further, the results for the Kd in assay [2] and in assay [3] were less than 100 nM and 100 to 1000 nM, respectively.
Compound `CCOc1cn(-c2ccnc(O)c2)nc1C(=O)Nc1ccc(Oc2ccnc3cc(OC)c(OC)cc23)cn1` [Compound 7] had an IC50 in assay [1] not below 1000 nM. Further, the Kd was not below 1000 nM in assay [2] and less than 100 nM in assay [3].
With `CCOc1cn(-c2cn[nH]c2)nc1C(=O)Nc1ccc(Oc2ccnc3cc(OC)c(OC)cc23)cn1` [Compound 8], in assay [1], the IC50 is less than 100 nM. In addition, the Kd is 100 to 1000 nM in assay [2] and less than 100 nM in assay [3].
In the case of `CCOc1cn(-c2cnc(N)nc2)nc1C(=O)Nc1ccc(Oc2ccnc3cc(OC)c(OC)cc23)cn1` [Compound 10], in assay [1], the IC50 is less than 100 nM. Moreover, the Kd in assay [2] and in assay [3] was less than 100 nM in each case.
For `CCOc1cn(-c2cncn2C)nc1C(=O)Nc1ccc(Oc2ccnc3cc(OC)c(OC)cc23)cn1` [Compound 11], the IC50 in assay [1] was less than 100 nM. The Kd in assay [2] and in assay [3] was 100 to 1000 nM throughout.
Regarding `CCOc1cn(-c2nccs2)nc1C(=O)Nc1ccc(Oc2ccnc3cc(OC)c(OC)cc23)cn1` [Compound 12], the IC50 in assay [1] was less than 100 nM. Also, the Kd in assay [2] is less than 100 nM; in assay [3] it was 100 to 1000 nM.
As to `CCOc1cn(-c2cscn2)nc1C(=O)Nc1ccc(Oc2ccnc3cc(OC)c(OC)cc23)cn1` [Compound 13], the 50% inhibitory concentration (IC50) in assay [1] is less than 100 nM. The Kd in assay [2] and in assay [3] was less than 100 nM throughout.
In turn, `CCOc1cn(-c2cncs2)nc1C(=O)Nc1ccc(Oc2ccnc3cc(OC)c(OC)cc23)cn1` [Compound 14] yielded an IC50 in assay [1] of less than 100 nM. The Kd in assay [2] and in assay [3] was less than 100 nM in each case.
`CCOc1cnn(-c2cncs2)c1C(=O)Nc1ccc(Oc2ccnc3cc(OC)c(OC)cc23)cn1` [Compound 16]: the IC50 in assay [1] was in the range of 100 to 1000 nM. Further, the Kd in assay [2] and in assay [3] was 100 to 1000 nM each time.
Consider `CCOc1cn(-c2cnc(CO)nc2)nc1C(=O)Nc1ccc(Oc2ccnc3cc(OC)c(OC)cc23)cn1` [Compound 96], for which the IC50 in assay [1] is less than 100 nM. In addition, the Kd in assay [2] and in assay [3] was not below 1000 nM throughout.
As to `CCOc1cn(-c2ccc(F)cc2C)nc1C(=O)Nc1ccc(Oc2ccnc3cc(OC)c(OC)cc23)nn1` [Compound 97], the IC50 in assay [1] was less than 100 nM. In addition, the Kd in assay [2] and in assay [3] was not below 1000 nM throughout.
In assay [1], `CCOc1cn(-c2ccc(C(F)(F)F)cc2C)nc1C(=O)Nc1ccc(Oc2ccnc3cc(OC)c(OC)cc23)cn1` [Compound 99] displayed an IC50 of less than 100 nM. Besides, the Kd is 100 to 1000 nM in assay [2] and not below 1000 nM in assay [3].
The like results for `CCOc1cn(-c2ccc(C)cc2F)nc1C(=O)Nc1ccc(Oc2ccnc3cc(OC)c(OC)cc23)cn1` [Compound 100] were, in that order, less than 100 nM, 100 to 1000 nM and 100 to 1000 nM.
For `CCOc1cn(-c2ccc(Cl)cc2C(F)(F)F)nc1C(=O)Nc1ccc(Oc2ccnc3cc(OC)c(OC)cc23)cn1` [Compound 101], in that order: less than 100 nM, 100 to 1000 nM and less than 100 nM.
In turn, `CCOc1cnn(-c2ccc(C(F)(F)F)cc2C)c1C(=O)Nc1ccc(Oc2ccnc3cc(OC)c(OC)cc23)cn1` [Compound 102] yielded a half-maximal inhibitory concentration (IC50) in assay [1] of less than 100 nM. The Kd in assay [2] is 100 to 1000 nM; in assay [3] it was not below 1000 nM.
The like results for `CCOc1cn(-c2ccc(F)cc2C(F)(F)F)nc1C(=O)Nc1ccc(Oc2ccnc3cc(OC)c(OC)cc23)cn1` [Compound 104] were, in that order, less than 100 nM, less than 100 nM and less than 100 nM.
For `CCOc1cn(-c2ccc(C(F)(F)F)cc2C(F)(F)F)nc1C(=O)Nc1ccc(Oc2ccnc3cc(OC)c(OC)cc23)cn1` [Compound 105], in that order: less than 100 nM, 100 to 1000 nM and less than 100 nM.
The compound `CCOc1cn(-c2ccc(Cl)cc2F)nc1C(=O)Nc1ccc(Oc2ccnc3cc(OC)c(OC)cc23)cn1` [Compound 106] yielded an IC50 in assay [1] of less than 100 nM. For the same compound, the Kd in assay [2] was 100 to 1000 nM; in assay [3] it was less than 100 nM.
As to `CCOc1cn(-c2ccc(F)cc2F)nc1C(=O)Nc1ccc(Oc2ccnc3cc(OC)c(OC)cc23)cn1` [Compound 107], in assay [1], the IC50 is less than 100 nM. Besides, the dissociation constant Kd in assay [2] and in assay [3] was less than 100 nM each time.
In assay [1], `CCOc1cn(-c2ccc(Cl)cc2Cl)nc1C(=O)Nc1ccc(Oc2ccnc3cc(OC)c(OC)cc23)cn1` [Compound 108] registered an IC50 of less than 100 nM. In addition, the values for the Kd in assay [2] and in assay [3] were less than 100 nM and not below 1000 nM, respectively.
Take `CCOc1cnn(-c2ccc(C(F)(F)F)cc2C(F)(F)F)c1C(=O)Nc1ccc(Oc2ccnc3cc(OC)c(OC)cc23)cn1` [Compound 110]: the IC50 in assay [1] is less than 100 nM. In addition, the Kd in assay [2] is 100 to 1000 nM; in assay [3], less than 100 nM.
The compound `CCOc1cn(-c2ccc(Cl)cc2CC)nc1C(=O)Nc1ccc(Oc2ccnc3cc(OC)c(OC)cc23)cn1` [Compound 111] came in with an IC50 in assay [1] of less than 100 nM. For the same compound, the dissociation constant Kd in assay [2] and in assay [3] was less than 100 nM throughout.
`CCOc1cn(-c2ccc(F)cc2CC)nc1C(=O)Nc1ccc(Oc2ccnc3cc(OC)c(OC)cc23)cn1` [Compound 112] had an IC50 in assay [1] of less than 100 nM. For the same compound, the Kd in assay [2] and in assay [3] was less than 100 nM each time.
`CCOc1cn(-c2ccc(OC(F)(F)F)cc2C)nc1C(=O)Nc1ccc(Oc2ccnc3cc(OC)c(OC)cc23)cn1` [Compound 113] returned an IC50 in assay [1] of less than 100 nM. The Kd in assay [2] and in assay [3] was 100 to 1000 nM in each case.
In assay [1], `CCOc1cn(-c2ccc(C(F)(F)F)cc2F)nc1C(=O)Nc1ccc(Oc2ccnc3cc(OC)c(OC)cc23)cn1` [Compound 114] gave a concentration for half-maximal inhibition (IC50) of less than 100 nM. For the same compound, the Kd in assay [2] is not below 1000 nM; in assay [3] it was less than 100 nM.
In turn, `CCOc1cn(-c2ccc(OC(F)(F)F)cc2Cl)nc1C(=O)Nc1ccc(Oc2ccnc3cc(OC)c(OC)cc23)cn1` [Compound 115] displayed an IC50 in assay [1] of less than 100 nM. Further, the Kd is not below 1000 nM in assay [2] and less than 100 nM in assay [3].
For the compound `CCOc1cn(-c2ccc(C(C)C)cc2)nc1C(=O)Nc1ccc(Oc2ccnc3cc(OC)c(OC)cc23)cn1` [Compound 116], the IC50 in assay [1] was less than 100 nM. The figures for the equilibrium dissociation constant (Kd) in assay [2] and in assay [3] were not below 1000 nM and 100 to 1000 nM, respectively.
For `CCOc1cn(-c2c(C)cc(C)cc2C)nc1C(=O)Nc1ccc(Oc2ccnc3cc(OC)c(OC)cc23)cn1` [Compound 117], in that order: less than 100 nM, 100 to 1000 nM and less than 100 nM.
For `CCOc1cn(-c2ccc(OC(F)(F)F)cc2F)nc1C(=O)Nc1ccc(Oc2ccnc3cc(OC)c(OC)cc23)cn1` [Compound 120], in that order: less than 100 nM, not below 1000 nM and 100 to 1000 nM.
For `CCOc1cn(-c2ccc(F)c(CN(C)C)c2)nc1C(=O)Nc1ccc(Oc2ccnc3cc(OC)c(OC)cc23)cn1` [Compound 124], in that order: less than 100 nM, less than 100 nM and less than 100 nM.
For `CCOc1cn(-c2ccc(F)cc2C(C)C)nc1C(=O)Nc1ccc(Oc2ccnc3cc(OC)c(OC)cc23)cn1` [Compound 125], in assay [1], the IC50 is less than 100 nM. Further, the equilibrium dissociation constant (Kd) in assay [2] and in assay [3] was less than 100 nM in each case.

(Values after patent US10934274B2, “Quinoline derivatives as TAM RTK inhibitors” (Qurient Co., Ltd., priority 2015, dated 2021).)
